Source: a melting point compilation (Tetko et al.)

Settings: a range is the spread between reports

Row | SMILES | melting point [°C]
1 | Brc1cncc2ccccc12 | 41 to 41.5
2 | CCO | -114
3 | O/N=C(\c1ccccc1)C(O)c1ccccc1 (centres undefined) | 151 to 154
4 | O=C(c1ccccc1)C(Cl)Cl | 20.5 to 21
5 | Cc1cccc(N)c1 | -31.3 to -30
6 | Ic1ccc(-c2ccccc2)cc1 | 112 to 114
7 | O=C/C=C/c1ccccc1 | -8 to -7
8 | O=Cc1ccc(C(F)(F)F)cc1 | 1.5 to 2
9 | C=CCSCC=C | -85 to -83
10 | O=Cc1ccc(-c2ccccc2)cc1 | 59 to 60
11 | Brc1ccc2ccccc2c1 | 54 to 59
12 | COC(=O)c1cccc([N+](=O)[O-])c1 | 78 to 80
13 | O=C(O)CSCc1ccccc1 | 61 to 62
14 | CCOc1ccc(O)cc1 | 66 to 66.5
15 | Cc1cccc(I)c1 | -27.2 to -27
16 | Cc1cncnc1 | 30 to 32
17 | O=C(Oc1ccccc1)c1ccccc1C(=O)Oc1ccccc1 | 73 to 75
18 | CC1=c2ccccc2=NC1c1ccccc1 (centres undefined) | 91 to 91.5
19 | CC1=CC(=O)OC1=O | 7.5 to 8
20 | CCC(C)=O | -87 to -86
21 | N#CCCC(Br)(C#N)CBr (centres undefined) | 50 to 52
22 | C=CS(=O)(=O)c1ccccc1 | 68 to 69

Row | SMILES | melting point [°C]
23 | C=CC(=O)OC | -76.5 to -75
24 | CC(=O)Nc1cccc(C(F)(F)F)c1 | 104 to 105
25 | COc1cc([N+](=O)[O-])ccc1N | 140 to 141
26 | Clc1ccc(I)cc1 | 54 to 57
27 | COc1cccc(C(=O)O)c1O | 151 to 152
28 | COc1cc(Cl)cc(OC)c1 | 34 to 35
29 | Nc1ccccc1[N+](=O)[O-] | 71 to 73
30 | Cc1ccc(O)c(C)c1 | 22 to 27
31 | Clc1cccc(Br)c1 | -22 to -21.5
32 | CC(C)(Cl)Cl | -34 to -33.8
33 | CCCCCCCC(C)O (centres undefined) | -35.5 to -35
34 | Clc1ccc(Cl)cc1 | 52.1 to 55
35 | O=C(c1ccc(O)cc1O)c1ccc(O)cc1O | 201 to 202
36 | NNc1c(F)c(F)c(F)c(F)c1F | 75 to 76
37 | CC(C)(C)CC(C)(C)C | -67 to -66.5
38 | Cc1cccs1 | -63.4 to -63
39 | COc1ccc(C=CC(=O)c2ccccc2)cc1 | 75 to 79
40 | CCCCCCCCCCC(C)=O | 19 to 21
41 | CCC(C)C | -160
42 | C=Cc1ccc([N+](=O)[O-])cc1 | 27 to 29
43 | N#Cc1ccc(C=O)cc1 | 100 to 102
44 | COc1ccc(N)c([N+](=O)[O-])c1 | 124 to 127

Row | SMILES | melting point [°C]
45 | c1ccc2c(c1)OCCOCCOc1ccccc1OCCOCCO2 | 162 to 163
46 | Cc1ccc(Cl)c(Cl)c1 | -15.2 to -15
47 | C1=CCCC1 | -135
48 | COc1cc(OC)c(C=O)c(OC)c1 | 120 to 121
49 | COC(=O)C(Cl)Cl | -52 to -51.9
50 | CC(=O)c1ccccc1 | 19 to 20.5
51 | BrCC(Br)(Br)CBr | 10.5 to 11
52 | Cc1ccc(N=C=S)cc1 | 25 to 25.5
53 | Brc1ccc(-c2ccccc2)cc1 | 90 to 91.5
54 | CCOc1ccc(N)cc1 | 2.4 to 4
55 | OCCCCCCCCCCCCO | 81.3 to 83
56 | CC(C)(C)c1cc(C(=O)O)cc(C(C)(C)C)c1O | 208
57 | COc1ccc2c3c1O[C@H]1[C@@H](O)C=C[C@H]4[C@@H](C2)N(C)CC[C@@]341 | 155 to 158
58 | Clc1cccc(Cl)n1 | 86 to 88
59 | c1ccc2c(c1)CCCC2 | -36 to -31
60 | COCCOc1c(OC)cc(Cc2cnc(N)nc2N)cc1OC | 154
61 | O=S(=O)(Cl)c1ccc(Cl)cc1 | 51 to 52
62 | COc1ccc(C(C)=O)c(OC)c1 | 40 to 41
63 | Oc1ccc(Cl)cc1Cc1ccccc1 | 48 to 48.5
64 | C=C(C)OC(C)=O | -93 to -92.9
65 | OCc1ccccc1Cl | 70 to 73
66 | CCCCCCCCC | -54 to -53

Row | SMILES | melting point [°C]
67 | Nc1ccc(F)c(Cl)c1 | 45.5 to 46
68 | CCCCSCCCC | -80 to -79.7
69 | Oc1ccc2cc(O)ccc2c1 | 220 to 224
70 | Cc1c(C(=O)O)cc([N+](=O)[O-])cc1[N+](=O)[O-] | 205 to 206
71 | O=C(O)c1cccc(Cl)c1 | 156 to 158
72 | Brc1c(Br)c(Br)c(Oc2c(Br)c(Br)c(Br)c(Br)c2Br)c(Br)c1Br | 305 to 306
73 | CC(=O)Nc1cccc(Cl)c1 | 77 to 80
74 | CCc1ccc(C)cc1C | -63 to -62.9
75 | O=C1c2ccccc2C(=O)c2ccccc21 | 284 to 286
76 | COCc1ccccc1 | -53 to -52
77 | OCc1ccc(Cl)c(Cl)c1 | 36 to 38
78 | Oc1nc2ccccc2s1 | 138 to 139
79 | BrCCCCCCCCBr | 15.5 to 16
80 | Cc1cc(C)cc(C(C)(C)C)c1 | -22 to -18
81 | OCc1c(F)c(F)c(F)c(F)c1F | 34 to 37.5
82 | O=C(O)c1ccccc1-c1c2cc(Br)c(=O)c(Br)c-2oc2c(Br)c(O)c(Br)cc12 | 296 to 300
83 | CCC(C)(C)C(C)C | -101
84 | Oc1ccccc1C(F)(F)F | 45.5 to 46
85 | COP(=O)(NC(C)=O)SC (centres undefined) | 88 to 89
86 | CCCCCCC(O)CCCC (centres undefined) | -4 to -3.5
87 | COP(=O)(OC)OC(=CCl)c1cc(Cl)c(Cl)cc1Cl | 96 to 97.5
88 | COC(=O)C1C(OC(=O)c2ccccc2)CC2CCC1N2C (centres undefined) | 93.5 to 98

Row | SMILES | melting point [°C]
89 | CCCCCCCCCCCCCCC(=O)O | 52 to 53
90 | C=Cc1ccccc1Br | -53 to -52.5
91 | CN(C)C(=O)C(c1ccccc1)c1ccccc1 | 134 to 135
92 | O=C(O)c1c(Cl)cc(Cl)cc1Cl | 162 to 163
93 | CN1C2CCC1CC(=O)C2 | 42 to 43
94 | COc1cccc(OC)c1C | 39 to 40
95 | CC(C)C(=O)c1ccccc1 | -1.3 to 1
96 | CC(=O)Nc1ccc(F)cc1 | 152 to 154
97 | CC(C)CCCl | -104
98 | CCC#CCCCC | -104
99 | C=Cc1ccc(Br)cc1 | 5 to 7.7
100 | Cc1ccc2cc3c(ccc4ccccc43)c3c2c1CC3 | 180
101 | O=C1OC(=O)C2C1C1(Cl)C(Cl)=C(Cl)C2(Cl)C1(Cl)Cl (centres undefined) | 233 to 237
102 | O=C(O)[C@H](O)[C@@H](O)C(=O)O | 169 to 171
103 | ClC(Cl)C(Cl)(Cl)Cl | -29 to -28.8
104 | Cc1cccc(C#N)c1 | -27 to -23
105 | CCC=O | -81 to -80
106 | COC | -142 to -138

Second part, the molecule after the results:

Row | melting point [°C] | SMILES
107 | 133 to 135 | O=C(O)/C=C/c1ccccc1
108 | 178 to 183 | CC1=C(/C=C/C(C)=C/C=C/C(C)=C/C=C/C=C(C)/C=C/C=C(C)/C=C/C2=C(C)CCCC2(C)C)C(C)(C)CCC1
109 | 71 to 72 | O=[N+]([O-])c1c(Cl)cc(Cl)cc1Cl
110 | 70 to 71.5 | Cc1ccc(OC(=O)c2ccccc2)cc1
111 | -43.5 to -43 | CCc1ccc(Br)cc1
112 | -74 to -73.6 | FC(Br)(Br)Br
113 | 231 | c1ccc(CNc2ncnc3nc[nH]c23)cc1
114 | 113 to 114 | CC(Oc1ccccc1Cl)C(=O)O (centres undefined)
115 | 56 to 57.7 | C#CCCC(=O)O
116 | 147 to 150 | COc1ccc(C=O)c(C(=O)O)c1OC
117 | 4 to 6 | Cc1cccc(Cl)c1Cl
118 | 83 to 86 | c1ccc(-c2ccc3ccccc3n2)cc1
119 | 37.2 to 38 | O=C=Nc1ccc(Cc2ccc(N=C=O)cc2)cc1
120 | 31.5 to 32 | Cc1ccc(C(C)C)cc2c(C)ccc1-2
121 | 122 to 123 | Oc1ccc2ccccc2c1
122 | -70 to -69.8 | CC1(C)CCCC1
123 | 5 to 6.1 | ICI
124 | 102 to 103 | NNS(=O)(=O)c1ccccc1
125 | 173 to 178 | CC12CCC3c4ccc(O)cc4CCC3C1CCC2O (centres undefined)
126 | -7 to -2 | O=C(Cl)CCc1ccccc1

Row | melting point [°C] | SMILES
127 | 145 to 149 | Cc1ccc(P(c2ccc(C)cc2)c2ccc(C)cc2)cc1
128 | -6 to -5 | CCCCCCCCCC=O
129 | 41 to 44 | O=C(OCc1ccccc1)c1ccccc1C(=O)OCc1ccccc1
130 | 5 to 5.6 | CCCCCCCCCCCCCCBr
131 | 126 to 127 | O=C(O)CCCCCCCCCCCCCCCCCCC(=O)O
132 | 39.9 to 40.5 | OC1CCCCCCCCC1
133 | -2 to -1.5 | Cc1ccc2ccccc2n1
134 | -41.4 to -41 | Cc1cccc(C(C)(C)C)c1
135 | -37.5 to -37 | COc1ccccc1
136 | 10 to 10.5 | CC(=O)c1cc(C)c(C)cc1C
137 | -45 to -44 | CCOCCOCCOCC
138 | -111 | CCC(S)CC
139 | 226 to 227 | Nc1nc(N)nc(-c2ccccc2)n1
140 | 112 to 115 | O=[N+]([O-])c1ccc(O)cc1
141 | 92 to 94 | COc1cccc(C(=O)NN)c1
142 | 37 to 41 | COc1ccccc1C(=O)c1ccccc1
143 | -101 | CCC(C)C(C)(C)CC (centres undefined)
144 | 67 to 67.8 | CC#CC#CC
145 | 246 to 251 | c1ccc(-c2c3ccccc3c(-c3ccccc3)c3ccccc23)cc1
146 | 34 to 34.5 | CCOC(=O)c1ccco1

Row | melting point [°C] | SMILES
147 | -113 | CCC(C)(C)CC(C)C
148 | 270 to 273 | CS(=O)(=O)c1ccc(C(=O)O)cc1
149 | -20 to -18 | CCOC(=O)CCCCC(=O)OCC
150 | 9.9 to 10 | CCCCCCCCCCCCCCC
151 | 117 to 118 | O=C(O)CCC(=O)c1ccccc1
152 | 79 to 83 | O=C(Oc1ccccc1)Oc1ccccc1
153 | 32 to 35 | O=C(Cc1ccccc1)Cc1ccccc1
154 | 44 to 45.5 | CCN1C(=O)C=CC1=O
155 | 82 to 85.5 | O=[N+]([O-])c1cc(Br)ccc1Br
156 | 32 to 36 | CC(=O)c1cccc(C(C)=O)c1
157 | -36 to -35 | Cc1ccccc1Cl
158 | 184 | CN1CCN(C2=Nc3cc(Cl)ccc3Nc3ccccc32)CC1
159 | -46 to -44 | CCCCCCCCI
160 | 107 to 108 | Cc1cc(O)cc(O)c1
161 | -116 to -115 | C=COCC
162 | 114 to 115 | CC(C)(C)C1=CC(=O)C(=O)C(C(C)(C)C)=C1
163 | -45 to -43 | CCOC(=O)CC(C)=O
164 | 110 to 111 | CC(N)(CO)CO
